Key:
[1] = Determining the dissolution rate using the true dissolution method (Sirius inForm, pressed disks); type: physicochemical; settings: for times more soluble than crystalline form 2 of lesinurad free acid: ratio of dissolution rates measured under identical conditions; for dissolution rate: true dissolution disks d = 3 mm, 40 ml acetate-phosphate buffer pH 6.8, 100 rpm, UV/Vis
Method: The dissolution rate was measured using a Sirius inForm dissolution device. Disks for true dissolution with the surface area available for dissolution of 0.071 cm^2 (d = 0.3 cm) were prepared using a Specac press. The pressing time was 2x2 minutes at the pressing pressure of 100 kg. The dissolution was carried out in 40 ml of a solution at pH 6.8 (38 ml of 150mM NaCl + 2 ml of 150mM NaCl, 100mM CH3COONa, 100mM NaH2PO4), at the constant speed of 100 rpm. Samples were drawn at 5-second intervals and the concentration of dissolved lesinurad was determined by means of an integrated UV/Vis spectrophotometric probe in the wavelength range of 230-400 nm. Disks for measuring true dissolution (d = 3 mm) were produced from the prepared solid forms of lesinurad, i.e. free acid form 2 (reference form), tromethamine salt form I and diethylamine salt, and solid form of lesinurad with urea (form I), with the use of a press. The dissolution was carried out in 40 ml of an acetate-phosphate buffer at pH 6,8 (150mM NaCl, 5mM CH3COONa, 5mM NaH2PO4), at the constant stirring speed of 100 rpm. Samples were drawn at 5-second intervals and the concentration of dissolved lesinurad was determined by means of a UV/Vis spectrophotometer.

[2] = Chemical and polymorphic stability test of the crystalline form; type: physicochemical
Method: The prepared crystalline form I was subjected to tests from the point of view of chemical and polymorphic stability. […] The same results were also obtained after 3 days at 80°C.

Structure (SMILES)	times more soluble than crystalline form 2 of lesinurad free acid ([1]; listed as salt with diethylamine) [times]	dissolution rate [1] [mg/min/cm^2]	dissolution rate ([1]; listed as lesinurad with dimethylamine) [mg/min/cm^2]	chemical and polymorphic stability ([2]; after 3 months at 40°C / 75% humidity)	chemical and polymorphic stability ([2]; after 3 days at 80°C)	times more soluble than crystalline form 2 of lesinurad free acid ([1]; listed as solid form of lesinurad with tromethamine)	dissolution rate ([1]; listed as lesinurad with tromethamine) [mg/min/cm^2]	dissolution rate ([1]; listed as crystalline form 2 of lesinurad free acid) [mg/min/cm^2]
O=C(O)CSc1nnc(Br)n1-c1ccc(C2CC2)c2ccccc12 [lesinurad with diethylamine]	~50	21.58	21.58					
O=C(O)CSc1nnc(Br)n1-c1ccc(C2CC2)c2ccccc12 [lesinurad with tromethamine (form I)]		7.44		did not show any signs of chemical degradation or transition to a different polymorphic form	same results	about 17 times	7.44	
O=C(O)CSc1nnc(Br)n1-c1ccc(C2CC2)c2ccccc12 [lesinurad free acid (form 2), 2-(5-bromo-4-(1-cyclopropylnaphtalen-4-yl)-4H-1,2,4-triazol-3-ylthio)acetic acid, reference compound]		0.42						0.42
